In patent publication US20260007758A1, “SO[…]-2 RECEPTOR (SST2R) NON-PEPTIDE DRUG CONJUGATES AND USES THEREOF” (Crinetics Pharmaceuticals, Inc., priority 2024, published 2026):

Assays:
Format in all cases: cell-based
SST2 = target: T1, SST2 (Homo sapiens, UniProt P30874); test: PathHunter CHO-K1 SST2 Internalization Assay; details: PathHunter CHO-K1 SST2 cells; 90 min at 37 C; luminescence; read-out: Internalization EC50
T1 construct: host or cells: PathHunter CHO-K1 SST2 cells
Procedure, shortened: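 Four-parameter nonlinear fits of background-corrected luminescence (duplicate means) gave IC50s. NDCs were serially diluted 1:3 over 11 points from a 10 uM final top concentration and incubated 90 min at 37 C with human SST2 CHO-K1 cells plated 48 h earlier at 2500/well. Beta-Glo read-out developed 60 min at RT.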

[1] = test system: NCI-H524 human small cell lung cancer cells; test: H524 assay: inhibition of cell proliferation (CellTiter Glo); details: 2 h treatment, washout, additional 70 h incubation
Procedure, shortened: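 Proliferation was measured by CellTiter Glo 70 h after a washout that followed a 2 h pulse of NDC. Doses were an 11-point, two-fold dilution series from 1 uM. IC50 was fitted with a four-parameter model to luminescence-based % inhibition relative to control cells.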

[2] = target: T2, human somatostatin receptor subtype 2 (Homo sapiens, UniProt P30874); test: Functional assay for SSTR2 agonists (HTRF cAMP); details: CHO-K1 cells stably expressing human SST2; NKH477-stimulated cAMP; 20 min at 37 C; read-out: hSST2 cAMP Avg EC50
T2 construct: expressed in transfected cells
T2 sequence (P30874 whole entry): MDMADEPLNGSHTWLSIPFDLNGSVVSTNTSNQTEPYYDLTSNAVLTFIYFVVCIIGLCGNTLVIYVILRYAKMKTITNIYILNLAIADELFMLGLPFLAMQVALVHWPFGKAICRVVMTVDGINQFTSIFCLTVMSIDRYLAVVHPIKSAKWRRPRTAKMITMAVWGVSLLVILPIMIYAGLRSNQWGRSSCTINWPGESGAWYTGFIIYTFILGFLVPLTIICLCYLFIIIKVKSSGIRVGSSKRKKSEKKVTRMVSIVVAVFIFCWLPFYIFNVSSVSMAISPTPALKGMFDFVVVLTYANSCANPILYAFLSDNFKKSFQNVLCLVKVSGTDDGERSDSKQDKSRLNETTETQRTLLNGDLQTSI
Procedure, shortened: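 Agonist activity read as fall in intracellular cAMP: HTRF 665/620 nm ratio regressed to a cAMP standard curve, EC50 fitted. Stable human SSTR2 CHO-K1 cells exposed 20 min at 37 °C to compound, final concentrations typically 0-10,000 nM.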

T1 sequence (P30874 whole entry): as above

Structure (SMILES): CC[C@H](C)[C@@H]([C@@H](CC(=O)N1CCC[C@H]1[C@H](OC)[C@@H](C)C(=O)N[C@H](C)[C@@H](O)c1ccccc1)OC)N(C)C(=O)[C@@H](NC(=O)[C@H](C(C)C)N(C)C(=O)OCc1ccc(NC(=O)[C@H](CCCNC(N)=O)NC(=O)[C@@H](NC(=O)c2cc(NCCOCCC(=O)NCCNc3ncc(-c4cc(C)cc(F)c4)c(N4CCC(N)CC4)c3-c3nc4ccc(Cl)cc4[nH]3)cc(C(=O)NC[C@@H](N)C(=O)O)c2)C(C)C)cc1)C(C)C [Compound 147]
- EC50 (SST2): 23 nM
- EC50 [1]: 35 nM
- EC50 [2]: 0.56 nM

Structure (SMILES): CC[C@H](C)[C@@H]([C@@H](CC(=O)N1CCC[C@H]1[C@H](OC)[C@@H](C)C(=O)N[C@H](C)[C@@H](O)c1ccccc1)OC)N(C)C(=O)[C@@H](NC(=O)[C@H](C(C)C)N(C)C(=O)OCc1ccc(NC(=O)[C@H](CCCNC(N)=O)NC(=O)[C@@H](NC(=O)c2cc(NC(=O)CCOCCC(=O)NCCNc3ncc(-c4cc(C)cc(F)c4)c(N4CCC(N)CC4)c3-c3nc4ccc(Cl)cc4[nH]3)cc(C(=O)NCC(=O)O)c2)C(C)C)cc1)C(C)C [Compound 149]
- EC50 (SST2): 12 nM
- EC50 [1]: 100 nM
- EC50 [2]: 0.033 nM

Structure (SMILES): CC[C@H](C)[C@@H]([C@@H](CC(=O)N1CCC[C@H]1[C@H](OC)[C@@H](C)C(=O)N[C@H](C)[C@@H](O)c1ccccc1)OC)N(C)C(=O)[C@@H](NC(=O)[C@H](C(C)C)N(C)C(=O)OCc1ccc(NC(=O)[C@H](CCCNC(N)=O)NC(=O)[C@@H](NC(=O)c2cc(NC(=O)CCOCCOCCOCCOCCC(=O)NCCNc3ncc(-c4cc(C)cc(F)c4)c(N4CCC(N)CC4)c3-c3nc4ccc(Cl)cc4[nH]3)cc(C(=O)NCC(=O)O)c2)C(C)C)cc1)C(C)C [Compound 150]
- EC50 (SST2): 8.3 nM
- EC50 [1]: 53 nM
- EC50 [2]: 0.083 nM

Structure (SMILES): CC[C@H](C)[C@@H]([C@@H](CC(=O)N1CCC[C@H]1[C@H](OC)[C@@H](C)C(=O)N[C@H](C)[C@@H](O)c1ccccc1)OC)N(C)C(=O)[C@@H](NC(=O)[C@H](C(C)C)N(C)C(=O)OCc1ccc(NC(=O)[C@H](CCCNC(N)=O)NC(=O)[C@@H](NC(=O)c2cc(NCCCCCC(=O)NCCNc3ncc(-c4cc(C)cc(F)c4)c(N4CCC(N)CC4)c3-c3nc4ccc(Cl)cc4[nH]3)cc(C(=O)NCC(=O)O)c2)C(C)C)cc1)C(C)C [Compound 154]
- EC50 (SST2): 7.7 nM
- EC50 [1]: 39 nM
- EC50 [2]: 1.6 nM

Structure (SMILES): CC[C@H](C)[C@@H]([C@@H](CC(=O)N1CCC[C@H]1[C@H](OC)[C@@H](C)C(=O)N[C@H](C)[C@@H](O)c1ccccc1)OC)N(C)C(=O)[C@@H](NC(=O)[C@H](C(C)C)N(C)C(=O)OCc1ccc(NC(=O)[C@H](CCCNC(N)=O)NC(=O)[C@@H](NC(=O)c2cc(NC(=O)CCOCCn3cc(CCC(=O)NCCNc4ncc(-c5cc(C)cc(F)c5)c(N5CCC(N)CC5)c4-c4nc5ccc(Cl)cc5[nH]4)nn3)cc(C(=O)NCC(=O)O)c2)C(C)C)cc1)C(C)C [Compound 155]
- EC50 (SST2): 10 nM
- EC50 [1]: 300 nM
- EC50 [2]: 0.44 nM

Structure (SMILES): CC[C@H](C)[C@@H]([C@@H](CC(=O)N1CCC[C@H]1[C@H](OC)[C@@H](C)C(=O)N[C@H](C)[C@@H](O)c1ccccc1)OC)N(C)C(=O)[C@@H](NC(=O)[C@H](C(C)C)N(C)C(=O)OCc1ccc(NC(=O)[C@H](CCCNC(N)=O)NC(=O)[C@@H](NC(=O)c2cc(NC(=O)C[C@@H](N)C(=O)NCCOCCC(=O)NCCNc3ncc(-c4cc(C)cc(F)c4)c(N4CCC(N)CC4)c3-c3nc4ccc(Cl)cc4[nH]3)cc(C(=O)NCC(=O)O)c2)C(C)C)cc1)C(C)C [Compound 156]
- EC50 (SST2): 14 nM
- EC50 [1]: 140 nM
- EC50 [2]: 0.28 nM

Structure (SMILES): CC[C@H](C)[C@@H]([C@@H](CC(=O)N1CCC[C@H]1[C@H](OC)[C@@H](C)C(=O)N[C@H](C)[C@@H](O)c1ccccc1)OC)N(C)C(=O)[C@@H](NC(=O)[C@H](C(C)C)N(C)C(=O)OCc1ccc(NC(=O)[C@H](CCCNC(N)=O)NC(=O)[C@@H](NC(=O)c2cc(NCCC(=O)NCCNc3ncc(-c4cc(C)cc(F)c4)c(N4CCC(N)CC4)c3-c3nc4ccc(Cl)cc4[nH]3)cc(C(=O)NCC(=O)O)c2)C(C)C)cc1)C(C)C [Compound 157]
- EC50 (SST2): 20 nM
- EC50 [1]: 95 nM
- EC50 [2]: 0.45 nM

Structure (SMILES): CC[C@H](C)[C@@H]([C@@H](CC(=O)N1CCC[C@H]1[C@H](OC)[C@@H](C)C(=O)N[C@H](C)[C@@H](O)c1ccccc1)OC)N(C)C(=O)[C@@H](NC(=O)[C@H](C(C)C)N(C)C(=O)OCc1ccc(NC(=O)[C@H](CCCNC(N)=O)NC(=O)[C@@H](NC(=O)c2cc(C(=O)NCC(=O)O)cc(N(C)CCOCCC(=O)NCCNc3ncc(-c4cc(C)cc(F)c4)c(N4CCC(N)CC4)c3-c3nc4ccc(Cl)cc4[nH]3)c2)C(C)C)cc1)C(C)C [Compound 158]
- EC50 (SST2): 5.1 nM
- EC50 [1]: 40 nM
- EC50 [2]: 0.15 nM

Structure (SMILES): CC[C@H](C)[C@@H]([C@@H](CC(=O)N1CCC[C@H]1[C@H](OC)[C@@H](C)C(=O)N[C@H](C)[C@@H](O)c1ccccc1)OC)N(C)C(=O)[C@@H](NC(=O)[C@H](C(C)C)N(C)C(=O)OCc1ccc(NC(=O)[C@H](CCCNC(N)=O)NC(=O)[C@@H](NC(=O)c2cc(C(=O)NCC(=O)O)cc(N(C)CCOCCOCCOCCOCCC(=O)NCCNc3ncc(-c4cc(C)cc(F)c4)c(N4CCC(N)CC4)c3-c3nc4ccc(Cl)cc4[nH]3)c2)C(C)C)cc1)C(C)C [Compound 159]
- EC50 (SST2): 23 nM
- EC50 [1]: 130 nM
- EC50 [2]: 1.2 nM

Structure (SMILES): CC[C@H](C)[C@@H]([C@@H](CC(=O)N1CCC[C@H]1[C@H](OC)[C@@H](C)C(=O)N[C@H](C)[C@@H](O)c1ccccc1)OC)N(C)C(=O)[C@@H](NC(=O)[C@H](C(C)C)N(C)C(=O)OCc1ccc(NC(=O)[C@H](CCCNC(N)=O)NC(=O)[C@@H](NC(=O)c2cc(OCCOCCC(=O)NCCNc3ncc(-c4cc(C)cc(F)c4)c(N4CCC(N)CC4)c3-c3nc4ccc(Cl)cc4[nH]3)cc(C(=O)NCC(=O)O)c2)C(C)C)cc1)C(C)C [Compound 160]
- EC50 (SST2): 7.4 nM
- EC50 [1]: 100 nM
- EC50 [2]: 0.25 nM

Structure (SMILES): CC[C@H](C)[C@@H]([C@@H](CC(=O)N1CCC[C@H]1[C@H](OC)[C@@H](C)C(=O)N[C@H](C)[C@@H](O)c1ccccc1)OC)N(C)C(=O)[C@@H](NC(=O)[C@H](C(C)C)N(C)C(=O)OCc1ccc(NC(=O)[C@H](CCCNC(N)=O)NC(=O)[C@@H](NC(=O)c2cc(OCCOCCOCCOCCOCCC(=O)NCCNc3ncc(-c4cc(C)cc(F)c4)c(N4CCC(N)CC4)c3-c3nc4ccc(Cl)cc4[nH]3)cc(C(=O)NCC(=O)O)c2)C(C)C)cc1)C(C)C [Compound 161]
- EC50 (SST2): 9.1 nM
- EC50 [1]: 63 nM
- EC50 [2]: 0.32 nM

Structure (SMILES): CC[C@H](C)[C@@H]([C@@H](CC(=O)N1CCC[C@H]1[C@H](OC)[C@@H](C)C(=O)N[C@H](C)[C@@H](O)c1ccccc1)OC)N(C)C(=O)[C@@H](NC(=O)[C@H](C(C)C)N(C)C(=O)OCc1ccc(NC(=O)[C@H](CCCNC(N)=O)NC(=O)[C@@H](NC(=O)c2cc(NCCOCCC(=O)N(C)CC(=O)NCCNc3ncc(-c4cc(C)cc(F)c4)c(N4CCC(N)CC4)c3-c3nc4ccc(Cl)cc4[nH]3)cc(C(=O)NCC(=O)O)c2)C(C)C)cc1)C(C)C [Compound 162]
- EC50 (SST2): 4.7 nM
- EC50 [1]: 60 nM
- EC50 [2]: 0.27 nM

Structure (SMILES): CC[C@H](C)[C@@H]([C@@H](CC(=O)N1CCC[C@H]1[C@H](OC)[C@@H](C)C(=O)N[C@H](C)[C@@H](O)c1ccccc1)OC)N(C)C(=O)[C@@H](NC(=O)[C@H](C(C)C)N(C)C(=O)OCc1ccc(NC(=O)[C@H](CCCNC(N)=O)NC(=O)[C@@H](NC(=O)C[C@@H](N)C(=O)NCCOCCNC(=O)c2cc(NCCOCCC(=O)NCCNc3ncc(-c4cc(C)cc(F)c4)c(N4CCC(N)CC4)c3-c3nc4ccc(Cl)cc4[nH]3)cc(C(=O)NCC(=O)O)c2)C(C)C)cc1)C(C)C [Compound 163]
- EC50 (SST2): 6.3 nM
- EC50 [1]: 67 nM
- EC50 [2]: 0.15 nM

Structure (SMILES): CC[C@H](C)[C@@H]([C@@H](CC(=O)N1CCC[C@H]1[C@H](OC)[C@@H](C)C(=O)N[C@H](C)[C@@H](O)c1ccccc1)OC)N(C)C(=O)[C@@H](NC(=O)[C@H](C(C)C)N(C)C(=O)OCc1ccc(NC(=O)[C@H](CCCNC(N)=O)NC(=O)[C@@H](NC(=O)C[C@@H](N)C(=O)NCCOCCNC(=O)c2cc(NCCOCCC(=O)NCCNc3ncc(-c4cc(C)cc(F)c4)c(N4CCC(N)CC4)c3-c3nc4cc(F)cc(OC)c4[nH]3)cc(C(=O)NCC(=O)O)c2)C(C)C)cc1)C(C)C [Compound 164]
- EC50 (SST2): 4.1 nM
- EC50 [1]: 27 nM
- EC50 [2]: 0.35 nM

Structure (SMILES): CC[C@H](C)[C@@H]([C@@H](CC(=O)N1CCC[C@H]1[C@H](OC)[C@@H](C)C(=O)N[C@H](C)[C@@H](O)c1ccccc1)OC)N(C)C(=O)[C@@H](NC(=O)[C@H](C(C)C)N(C)C(=O)OCc1ccc(NC(=O)[C@H](CCCNC(N)=O)NC(=O)[C@@H](NC(=O)c2cc(NCCOCCC(=O)NCCNc3ncc(-c4cc(C)cc(F)c4)c(N4CCC(N)CC4)c3-c3nc4ccc(F)cc4[nH]3)cc(C(=O)NCC(=O)O)c2)C(C)C)cc1)C(C)C [Compound 165]
- EC50 (SST2): 10 nM
- EC50 [1]: 90 nM
- EC50 [2]: 0.5 nM

Structure (SMILES): CC[C@H](C)[C@@H]([C@@H](CC(=O)N1CCC[C@H]1[C@H](OC)[C@@H](C)C(=O)N[C@H](C)[C@@H](O)c1ccccc1)OC)N(C)C(=O)[C@@H](NC(=O)[C@H](C(C)C)N(C)C(=O)OCc1ccc(NC(=O)[C@H](CCCNC(N)=O)NC(=O)[C@@H](NC(=O)c2cc(NCCOCCC(=O)NCCNc3ncc(-c4cc(C)cc(F)c4)c(N4CCC(N)CC4)c3-c3nc4cc(F)cc(OC)c4[nH]3)cc(C(=O)NCC(=O)O)c2)C(C)C)cc1)C(C)C [Compound 166]
- EC50 (SST2): 4.5 nM
- EC50 [1]: 18 nM
- EC50 [2]: 0.29 nM
